Reference: PMC3100585 (The Annals of pharmacotherapy, 2010)
Values joined by “and” are separate entries in the source; they are usually repeats but may differ in a detail not shown here. Identical values can stand only once.

Tests used:
CYP3A4 [1] = experiment: Midazolam pharmacokinetics; conditions: for Midazolam AUC, median (dose normalized): 6 patients; for half-life: human, plasma, intravenous, 0.0145 mg/kg, Half-life of midazolam, median
human NR1I2 = target: T1, human NR1I2 (Homo sapiens, UniProt O75469); conditions: HepG2 cells, 24 hours; vinblastine 150-4800 ng/mL; rifampin 10 μM
T1 sequence (O75469 1-434): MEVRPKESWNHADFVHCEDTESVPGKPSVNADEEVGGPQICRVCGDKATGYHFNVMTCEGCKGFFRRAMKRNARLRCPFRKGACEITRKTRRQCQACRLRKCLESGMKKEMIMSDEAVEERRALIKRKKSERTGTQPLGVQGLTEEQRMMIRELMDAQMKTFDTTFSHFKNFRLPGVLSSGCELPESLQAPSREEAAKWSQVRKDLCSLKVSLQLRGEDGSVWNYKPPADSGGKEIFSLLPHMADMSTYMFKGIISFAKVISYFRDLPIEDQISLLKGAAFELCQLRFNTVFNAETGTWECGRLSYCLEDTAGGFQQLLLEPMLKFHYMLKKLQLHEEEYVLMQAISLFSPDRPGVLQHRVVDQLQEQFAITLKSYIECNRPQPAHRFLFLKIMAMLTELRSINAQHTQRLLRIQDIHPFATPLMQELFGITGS

mouse NR1I2 = target: T2, mouse NR1I2 (Mus musculus, UniProt O54915); experiment: Luciferase reporter gene assay, full-length mouse NR1I2; type: cell-based; conditions: HepG2 cells, 24 hours; vinblastine 150-4800 ng/mL; PCN 50 μM
T2 sequence (O54915 1-431): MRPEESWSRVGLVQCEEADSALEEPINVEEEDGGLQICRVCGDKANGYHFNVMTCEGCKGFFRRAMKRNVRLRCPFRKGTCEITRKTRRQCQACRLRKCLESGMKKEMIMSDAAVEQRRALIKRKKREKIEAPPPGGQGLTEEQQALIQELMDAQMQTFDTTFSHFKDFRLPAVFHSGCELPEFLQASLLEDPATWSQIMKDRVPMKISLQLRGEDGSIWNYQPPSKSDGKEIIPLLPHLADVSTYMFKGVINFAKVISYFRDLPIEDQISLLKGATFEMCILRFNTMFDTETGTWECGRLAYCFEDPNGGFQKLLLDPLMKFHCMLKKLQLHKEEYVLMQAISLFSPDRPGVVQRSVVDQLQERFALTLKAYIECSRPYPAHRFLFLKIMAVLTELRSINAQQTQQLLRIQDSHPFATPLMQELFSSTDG

CYP3A4 [2] = conditions: cited from earlier work
human NR1I3 = target: T3, human NR1I3 (Homo sapiens, UniProt Q14994); conditions: NIH3T3 cells, 24 hours; vinblastine 150-4800 ng/mL
T3 sequence (Q14994 1-348 isoform Q14994-2): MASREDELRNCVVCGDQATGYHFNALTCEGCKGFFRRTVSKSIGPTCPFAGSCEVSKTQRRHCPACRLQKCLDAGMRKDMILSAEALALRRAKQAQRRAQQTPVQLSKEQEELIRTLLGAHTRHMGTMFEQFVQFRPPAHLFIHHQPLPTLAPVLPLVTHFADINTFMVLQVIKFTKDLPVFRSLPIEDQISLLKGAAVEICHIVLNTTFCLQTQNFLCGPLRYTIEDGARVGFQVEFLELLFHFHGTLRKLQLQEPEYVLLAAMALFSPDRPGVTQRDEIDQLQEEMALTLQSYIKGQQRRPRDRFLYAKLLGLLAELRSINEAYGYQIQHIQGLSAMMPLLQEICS
T3 sequence (P28700 1-467 partner): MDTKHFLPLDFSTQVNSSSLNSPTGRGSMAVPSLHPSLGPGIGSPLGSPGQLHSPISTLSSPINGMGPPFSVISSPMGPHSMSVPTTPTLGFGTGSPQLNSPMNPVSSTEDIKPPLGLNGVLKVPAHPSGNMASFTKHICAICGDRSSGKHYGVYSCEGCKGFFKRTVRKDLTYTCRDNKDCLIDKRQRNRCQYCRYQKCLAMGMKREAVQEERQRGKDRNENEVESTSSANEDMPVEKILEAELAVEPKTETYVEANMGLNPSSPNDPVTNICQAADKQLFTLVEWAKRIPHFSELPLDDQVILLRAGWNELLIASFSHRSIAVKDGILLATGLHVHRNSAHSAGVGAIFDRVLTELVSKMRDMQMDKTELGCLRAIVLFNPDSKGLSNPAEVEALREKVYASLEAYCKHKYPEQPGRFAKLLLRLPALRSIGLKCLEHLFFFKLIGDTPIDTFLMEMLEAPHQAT

mouse NR1I3 = target: T4, mouse NR1I3 (Mus musculus, UniProt O35627); conditions: NIH3T3 cells, 24 hours; vinblastine 150-4800 ng/mL
T4 sequence (O35627 1-358): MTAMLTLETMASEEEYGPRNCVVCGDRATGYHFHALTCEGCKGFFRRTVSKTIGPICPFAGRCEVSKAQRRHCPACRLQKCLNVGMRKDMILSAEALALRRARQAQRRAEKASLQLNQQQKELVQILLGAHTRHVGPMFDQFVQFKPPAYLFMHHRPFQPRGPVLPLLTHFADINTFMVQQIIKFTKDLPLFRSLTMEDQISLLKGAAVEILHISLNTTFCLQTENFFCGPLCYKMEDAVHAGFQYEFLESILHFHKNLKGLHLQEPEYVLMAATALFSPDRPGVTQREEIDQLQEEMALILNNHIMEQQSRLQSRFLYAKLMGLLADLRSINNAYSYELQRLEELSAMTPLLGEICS

[3] = tested on: CYP3A4 protein in HepG2 cells; experiment: CYP3A4 protein expression by Western blot in HepG2 cells; type: cell-based, human; conditions: 48 hours, vinblastine 300 ng/mL and above (range 150-4800 ng/mL)

## Cc1ncc2n1-c1ccc(Cl)cc1C(c1ccccc1F)=NC2 [midazolam]
CYP3A4 [1]; day 1 of cycle 1
  Midazolam AUC, median (dose normalized): 46.4 ng·h/mL per mg
  half-life: 2.54 h
CYP3A4 [1]; day 1 of cycle 4, after repeat vinblastine
  Midazolam AUC, median (dose normalized): 31.0 ng·h/mL per mg
CYP3A4 [1]; day 1 of cycle 4
  half-life: 3.08 h
CYP3A4 [1]; individual patients, cycle 4 vs cycle 1, after repeat vinblastine
  % ↑ Midazolam Cl: 51.7% and 35.9% and 216.7% and 2.5% and 46.9% and 6.9%
CYP3A4 [1]; one patient, midazolam on 5 occasions over 1.3 years, end of period
  Midazolam clearance relative to value prior to treatment with vinblastine: 3.6 fold

## C/C=C/C[C@@H](C)C(=O)[C@H]1C(=O)N[C@@H](C(C)C)C(=O)N(C)CC(=O)N(C)[C@@H](CC(C)C)C(=O)N[C@@H](C(C)C)C(=O)N(C)[C@@H](CC(C)C)C(=O)N[C@@H](C)C(=O)N[C@H](C)C(=O)N(C)[C@@H](CC(C)C)C(=O)N(C)[C@@H](CC(C)C)C(=O)N(C)[C@@H](C(C)C)C(=O)N1C [valspodar]
Human NR1I2
  Increase in transcriptional (reporter) activity of human NR1I2: Increased activity of the reporter was not observed
Mouse NR1I2
  Increase in transcriptional (reporter) activity of mouse NR1I2: Increased activity of the reporter was not observed
CYP3A4 [2]
  CYP3A4 inhibition: very weak CYP3A4 inhibitor
Human NR1I3
  Effect on transcriptional activity of human NR1I3: Increased activity of the reporter was not observed
Mouse NR1I3
  Effect on transcriptional activity of mouse NR1I3: Increased activity of the reporter was not observed

## CC[C@]1(O)C[C@@H]2CN(CCc3c([nH]c4ccccc34)[C@@](C(=O)OC)(c3cc4c(cc3OC)N(C)[C@H]3[C@@](O)(C(=O)OC)[C@H](OC(C)=O)[C@]5(CC)C=CCN6CC[C@]43[C@@H]65)C2)C1 [vinblastine, Vinblastine]
[3]
  CYP3A4 protein expression compared to DMSO-treated control cells: substantially increased CYP3A4 protein expression
